Measurements: PMC4928820 (Molecular Pharmaceutics, 2015)

Experiments:
[1] = water-saturated tricaprylin compared to dry tricaprylin ref 34; cited from earlier work
[2] = assay type: physicochemical; settings: 37 °C, mean ± SD, triplicate; for Thermodynamic solubility in Carbitol: cosolvent; for Thermodynamic solubility in Maisine 35-1: long-chain mono-; for Thermodynamic solubility in Maisine 35-1 / Thermodynamic solubility in Capmul MCM EP: di-, triglyceride; for Thermodynamic solubility in Capmul MCM EP: medium-chain mono-

SMILES: CNC(=O)c1ccccc1 [N-methylbenzamide]
- Increase of solubility [1]: more than 50%

SMILES: CC(C)(C)NC(=O)[C@@H]1C[C@@H]2CCCC[C@@H]2CN1C[C@@H](O)[C@H](Cc1ccccc1)NC(=O)[C@H](CC(N)=O)NC(=O)c1ccc2ccccc2n1 [saquinavir]
- Thermodynamic solubility in Carbitol [2]: ≥317 mg/g
- Thermodynamic solubility in Maisine 35-1 [2]: ≥123 mg/g
- Thermodynamic solubility in Capmul MCM EP [2]: ≥288 mg/g

SMILES: CC(C)(Oc1ccc(C(=O)c2ccc(Cl)cc2)cc1)C(=O)O [fenofibric acid]
- Thermodynamic solubility in Carbitol [2]: 92.8 ± 4.81 mg/g
- Thermodynamic solubility in Maisine 35-1 [2]: 7.38 ± 0.22 mg/g
- Thermodynamic solubility in Capmul MCM EP [2]: 14.5 ± 0.50 mg/g
- Thermodynamic solubility in Cremophor EL ([2]; surfactant (≤3% w/w water)): 58.4 ± 2.59 mg/g
